Test: Calcium Flux Assay: This assay was used to test compounds for their ability to inhibit TARP γ8 dependent AMPA receptor activity. The AMPA receptor is a non-selective cation channel activated by glutamate. lonotropic glutamate receptors normally desensitize too rapidly to allow detectable calcium influx in a FLIPR assay (Strange et al. (2006). “Functional characterisation of homomeric ionotropic glutamate receptors GluR1-GluR6 in a fluorescence-based high throughput screening assay.” Comb Chem High Throughput Screen 9(2): 147-158). But, this desensitization is incomplete, and a substantial steady-state current remains in the sustained presence of glutamate (Cho et al. (2007). “Two families of TARP isoforms that have distinct effects on the kinetic properties of AMPA receptors and synaptic currents.” Neuron 55(6): 890-904).An in vitro assay was used to determine the potency of test compounds as inhibitors of the glutamate response of the channel formed by GluA1o-g8. To ensure a 1:1 stoichiometry of GluA1o and g8 subunits in the expressed channel, a fusion of the cDNAs for GRIA1o and CACNG8 was used. Channels expressed with this construct appear to have similar properties to channels formed by co-expression of GRIA1o with an excess of CACNG8 (Shi et al. 2009). A clonal cell line in HEK293 cells stably expressing this construct, with a geneticin selection marker, was generated for use in this assay. Cell expressing the GRIAlo-CACNG8 fusion construct were grown in a monolayer in 96- or 384-well microtiter plates. They were washed with assay buffer (135 mM NaCl, 4 mM KCl, 3 mM CaCl2), 1 mM MgCl2, 5 mM glucose, 10 mM HEPES, pH 7.4, 300 mOs) using a Biotek EL405 plate washer. The cells were then loaded with a calcium-sensitive dye (Calcium-5 or Calcium-6, Molecular Devices) and the test compounds at a range of concentrations. Calcium flux following the addition of 15 μM glutamate was monitored using a Molecular Devices FLIPR Tetra.The fluorescence in each well was normalized to the fluorescence of negative and positive control wells. […]
With Cc1cccc(C)c1-c1ccc2[nH]c(=O)[nH]c2c1 the IC50 was 158 nM. For O=c1[nH]c2ccc(-c3c(Cl)cccc3OC(F)(F)F)cc2s1, the IC50 was 2.51 nM. Work on O=c1[nH]c2ccc(-c3c(Cl)cccc3C3CC3)cc2[nH]1 yielded an IC50 of 6.31 nM.

Source: ChEMBL document CHEMBL5727613, “Benzimidazolone and benzothiazolone compounds and their use as AMPA receptor modulators” (2020)
